Reference: patent US20060025406A1, “Modulators of hepatocyte growth factor/c- Met activity” (Angion Biomedica Corporation, priority 2004, published 2006)

Assays:
HUVEC cells = assay: HGF/SF-induced HUVEC cell proliferation ([3H]-thymidine incorporation); format: cell-based, human; settings: HGF/SF 25 ng/ml, overnight, FIG. 1A
Method: Compounds of the invention were tested for HGF/SF inhibitory activity in HGF/SF-induced HUVEC cell proliferation in vitro. Briefly, HUVEC cells were seeded into 48-well plates and serum starved for 2 hours in medium containing 1% BSA, and then treated with test compounds in multiple concentrations in the presence or absence of HGF/SF (25 ng/ml, R&D Systems) overnight. This experiment also included negative (vehicle alone) and positive (HGF/SF alone) controls. Cell proliferation was measured by the incorporation of [^3H]-thymidine and counted using Beta scintillation counter.

[1] = system: A549 human lung carcinoma cells; assay: A549 subcutaneous xenograft; format: in vivo, Balb C nude mice; settings: 5 mg/kg i.p. daily for 3 weeks
Method: To investigate the effect of c-Met antagonist compound A on inhibiting the growth of A549 human lung carcinoma cells in vivo, 2×10^6 cells of A549 were injected subcutaneously into the right hind flank of male Balb C nude mice. Tumors were allowed to develop for 12 days and then animals were treated with compound A at 5 mg/kg i.p. daily for 3 weeks. Tumor size measurements were made twice weekly and volumes calculated ((length×width^2)/2 (mm^3)) Final weight of excised tumors was measured at the end of the 3-week treatment period (0.78 g for control vs. 0.05 g for compound A treated).

[2] = system: A549 human lung carcinoma cells; assay: MTT assay, cell viability; format: cell-based; settings: 72 hours continuous exposure
Method: To investigate the effect of c-Met antagonist compound A on inhibiting the growth of A549 human lung carcinoma cells in vitro, an MTT assay was carried out to determine cell viability. Cells were plated in 96-well plates at 5000 cells/well in complete medium, in the absence of drug. After 24 hours to allow for cell attachment, cells were incubated for 72 hours with the tested compounds (5 different concentrations) or vehicle. Cells were then exposed to MTT for 4 hours, and absorbance was measured at a wavelength of […].

| IC50 [2] [nM] | SMILES | inhibition of HGF/SF stimulation of endothelial cell proliferation (HUVEC cells) | tumor volume and weight [1] | final weight of excised tumors ([1]; control 0.78 g) [g] |
| --- | --- | --- | --- | --- |
|  | CC(C)=CC1C(CNc2nc(Nc3ccccc3C(C)C)c3ccccc3n2)C1(C)C (centres unmarked) [B] | inhibited HGF/SF stimulation of endothelial cell proliferation |  |  |
| 2900 | OCc1ccccc1Sc1ccccc1CNc1nc(NC2CCCC2)c2ccccc2n1 [compound A] | inhibited HGF/SF stimulation of endothelial cell proliferation | significantly reduced tumor volume and weight | 0.05 |
